One test relates to S. aureus. Briefly: Time kill assay. The note with it: for bactericidal activity in time kill assay: observed at 1 and 10 times MIC90. Type of test: cell-based, Staphylococcus aureus. The text has this: (§1) Bactericidal or bacteriostatic activity of the compounds may be determined in a time kill assay using the broth microdilution method*. In a time kill assay on Staphylococcus aureus and methicillin resistant S. aureus (MRSA), the starting inoculum of S. aurues and MRSA is 10^6 CFU/ml in Muller Hinton broth. The antibacterial compounds are used at the concentration of 0.1 to 10 times the MIC (i.e. IC90 as determined in microtitre plate assay). Wells receiving no antibacterial agent constitute the culture growth control. The plates containing the microorganism and the test compounds are incubated at 37° C. After 0, 4, 24, and 48 hrs of incubation samples are removed for determination of viable counts by serial dilution (10^−1 to 10^−6) in sterile PBS and plating (200 μl) on Mueller Hinton agar. The plates are incubated at 37° C. for 24 hrs and the number of colonies are determined Killing curves can be constructed by plotting the log10 CFU per ml versus time. A bactericidal effect is commonly defined as 3-log10 decrease in number of CFU per ml as compared to untreated inoculum. The potential carryover effect of the drugs is removed by serial dilutions and counting the colonies at highest dilution used for plating. No carryover effect is observed at the dilution of 10^−2 used for plating. […] Antimicrob. Agents Chemother. 40, 839-845 (1996).
A time kill assay was performed with compound 102 and the control drug ciprofloxacin.

For test [1], the system named is Enterococcus faecalis (ATCC29212). Briefly: Microtitre plate assay, IC90 determination. Type of test: cell-based. As to conditions: 90% inhibitory concentration for bacterial growth. The procedure:
(§2) The bacteria used in this study were grown overnight in flasks containing 100 ml Mueller-Hinton Broth (Becton Dickinson—cat. no. 275730) in sterile de-ionized water, with shaking, at 37° C. Stocks (0.5 ml/tube) were stored at −70° C. until use. Bacteria titrations were performed in microtiter plates and colony forming units (CFUs) were determined In general, an inoculum level of approximately 100 CFUs was used for susceptibility testing.
(§3) Flat-bottom, sterile 96-well plastic microtiter plates were filled with 180 μl of sterile deionized water, supplemented with 0.25% BSA. Subsequently, stock solutions (7.8× final test concentration) of compounds were added in 45 μl volumes in column 2. Serial five-fold dilutions (45 μl in 180 μl ) were made directly in the microtiter plates from column 2 to reach column 11. Untreated control samples with (column 1) and without (column 12) inoculum were included in each microtiter plate. Depending on the bacteria type, approximately 10 to 60 CFU per well of bacteria inoculum (100 TCID50), in a volume of 100 μl in 2.8× Mueller-Hinton broth medium, was added to the rows A to H, except column 12. The same volume of broth medium without inoculum was added to column 12 in row A to H. The cultures were incubated at 37° C. for 24 hours under a normal atmosphere (incubator with open air valve and continuous ventilation). At the end of incubation, one day after inoculation, the bacterial growth was quantitated fluorometrically. Therefore resazurin (0.6 mg/ml) was added in a volume of 20 μl to all wells 3 hours after inoculation, and the plates were re-incubated overnight. A change in colour from blue to pink indicated the growth of bacteria. The fluorescence was read in a computer-controlled fluorometer (Cytofluor Biosearch) at an excitation wavelength of 530 nm and an emission wavelength of 590 nm. The % growth inhibition achieved by the compounds was calculated according to standard methods. The IC90 (expressed in μg/ml) was defined as the 90% inhibitory concentration for bacterial growth.

The subject of test [2] is Streptococcus pyogens (ATCC8668). Description: Microtitre plate assay, IC90 determination. Type of test: cell-based. The note with it: 90% inhibitory concentration for bacterial growth. As to the method: as §2, §3
The test system of test [3] is Listeria monocytogenes (ATCC49594). Briefly: Microtitre plate assay, IC90 determination. Type of test: cell-based. As to conditions: 90% inhibitory concentration for bacterial growth. The procedure: as §2, §3
Test [4] deals with Escherichia coli (ATCC25922). Briefly: Microtitre plate assay, IC90 determination. As to conditions: 90% inhibitory concentration for bacterial growth. Type of test: cell-based. The procedure: as §2, §3
For test [5], the system named is Streptococcus pneumoniae (ATCC6305). Description: Microtitre plate assay, IC90 determination. The note with it: 90% inhibitory concentration for bacterial growth. Format: cell-based. As to the method:
as §2, §3

In test [6] the test system is Enterococcus faecalis (ATCC14506). Description: Microtitre plate assay, IC90 determination. Type of test: cell-based. As to conditions: 90% inhibitory concentration for bacterial growth. The procedure:
as §2, §3

Test [7] concerns Staphylococcus aureus (ATCC29213). Briefly: Microtitre plate assay, IC90 determination. Type of test: cell-based. As to conditions: 90% inhibitory concentration for bacterial growth. As to the method: as §2, §3
Test [8] deals with methicilline resistant Staphylococcus aureus (MRSA) (a clinical isolate from the University of Antwerp). Description: Microtitre plate assay, IC90 determination. Format: cell-based. As to conditions: 90% inhibitory concentration for bacterial growth. As to the method:
as §2, §3

Test [9] concerns Streptococcus mutans (ATCC33402). Briefly: Microtitre plate assay, IC90 determination. Type of test: cell-based. The note with it: 90% inhibitory concentration for bacterial growth. As to the method: as §2, §3
Test [10] concerns Staphylococcus aureus (ATCC43300). Briefly: Microtitre plate assay, IC90 determination. Format: cell-based. The note with it: 90% inhibitory concentration for bacterial growth. As to the method:
as §2, §3

Test [11] has as its system Staphylococcus aureus (ATCC25923). Briefly: Microtitre plate assay, IC90 determination. Type of test: cell-based. The note with it: 90% inhibitory concentration for bacterial growth. As to the method:
as §2, §3

Test [12] deals with Pseudomonas aeruginosa (ATCC27853). Description: Microtitre plate assay, IC90 determination. Format: cell-based. The note with it: 90% inhibitory concentration for bacterial growth. The procedure: as §2, §3
The test system of test [13] is Bacillus subtilis (ATCC43639). Description: Microtitre plate assay, IC90 determination. The note with it: 90% inhibitory concentration for bacterial growth. Format: cell-based. The procedure:
as §2, §3

The subject of test [14] is Escherichia coli (ATCC35218). Description: Microtitre plate assay, IC90 determination. Type of test: cell-based. As to conditions: 90% inhibitory concentration for bacterial growth. The procedure:
as §2, §3

For a further test, the system named is MRSA. Briefly: Time kill assay. Format: cell-based, methicillin resistant S. aureus.
Excerpt: as §1, with “(1996). […]” for “(1996).”

As for `COc1nc2ccc(Br)cc2cc1C(c1ccccc1)C(O)(CC[N+](C)(C)C)c1cccc2ccccc12.[I-]` (single isomer, unassigned) [Compound 102], in the test with S. aureus (MIC i.e. IC90 as determined in microtitre plate assay), the “MIC (1× MIC used in time kill assay)” value worked out at 2.3 µg/mL. For the same compound, the “growth in time kill assay” value in the test on S. aureus (at 0.1 times the MIC) was “followed the control in growth”. Moreover, in the test with S. aureus, the “bactericidal activity in time kill assay” value is listed as “bactericidal activity”. Also, the “IC90 EFA 29212” value in test [1] worked out at 2.8 µg/mL. In [2], the “IC90 SPY 8668” value came to 2.5 µg/mL. Further, the “IC90 LMO 49594” value in test [3] stood at 2.2 µg/mL. For the same compound, in [4], the “IC90 ECO 25922” value was 13.9 µg/mL. The “IC90 SPN 6305” value in [5] is 3.1 µg/mL. For the same compound, the “IC90 EFA 14506” value in test [6] is 2.8 µg/mL. Besides, the “IC90 STA 29213” value in test [7] came out at 2.8 µg/mL. Besides, the “IC90 STA RMETH” value in [8] amounted to 2.8 µg/mL. In addition, in [9], the “IC90 SMU 33402” value stood at 2.5 µg/mL. Besides, in test [10], the “IC90 STA 43300” value was 3.5 µg/mL. Besides, the “IC90 STA 25923” value in test [11] came to 2.2 µg/mL. The “IC90 PAE 27853” value in test [12] worked out at 13.9 µg/mL. Further, the “IC90 BSU 43639” value in [13] was 2.8 µg/mL.

On to `COc1nc2ccc(Br)cc2cc1C(c1ccccc1)C(O)(CC[N+](C)(C)C)c1cccc2ccccc12.[I-]` (single isomer, unassigned) [Compound 103], for which the “IC90 EFA 29212” value in [1] was 2.8 µg/mL. In addition, the “IC90 SPY 8668” value in test [2] turned out to be 2.8 µg/mL. Besides, in [3], the “IC90 LMO 49594” value worked out at 0.5 µg/mL. The “IC90 ECO 25922” value in test [4] is 11.1 µg/mL. Further, the “IC90 SPN 6305” value in test [5] came to 3.5 µg/mL. Further, in test [14], the “IC90 ECO 35218” value came to 17.5 µg/mL. For the same compound, the “IC90 EFA 14506” value in test [6] turned out to be 2.8 µg/mL. Besides, in test [7], the “IC90 STA 29213” value was determined as 2.0 µg/mL. The “IC90 STA RMETH” value in [8] was determined as 2.2 µg/mL. The “IC90 SMU 33402” value in test [9] was determined as 2.8 µg/mL. Also, the “IC90 STA 43300” value in [10] came out at 2.8 µg/mL. Also, the “IC90 STA 25923” value in [11] is 2.2 µg/mL. Further, the “IC90 PAE 27853” value in [12] was determined as 13.9 µg/mL. In addition, the “IC90 BSU 43639” value in test [13] stood at 2.8 µg/mL.

As for `O=C(O)c1cn(C2CC2)c2cc(N3CCNCC3)c(F)cc2c1=O` [ciprofloxacin, reference compound], the “bactericidal activity in time kill assay” value in the test with S. aureus is listed as “bactericidal activity”; in the test on MRSA it was “no bactericidal effect”.
